# Test results: article PMC4045772, “Structure of the BTB Domain of Keap1 and Its Interaction with the Triterpenoid Antagonist CDDO” (PLoS ONE, 2014)
# Molecular target: T1, Keap1 (Homo sapiens, UniProt Q14145)
# T1 construct: BTB plus part of BACK domain, residues 35-235, uncleaved N-terminal His-tag, E. coli BL21(DE3); AlphaScreen displacement of Cul3 (Cul3/Rbx1)
# Assay: X-ray co-crystal structure ([…] Å) of the covalent complex; AlphaScreen inhibition of Cul3 binding with purified Keap1 […]
# T1 sequence (P62877 whole entry, the tested form may be a part): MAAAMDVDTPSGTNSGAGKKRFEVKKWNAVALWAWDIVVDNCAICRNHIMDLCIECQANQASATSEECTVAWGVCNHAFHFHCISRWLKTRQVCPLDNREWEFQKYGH
# T1 sequence (Q14145 35-235): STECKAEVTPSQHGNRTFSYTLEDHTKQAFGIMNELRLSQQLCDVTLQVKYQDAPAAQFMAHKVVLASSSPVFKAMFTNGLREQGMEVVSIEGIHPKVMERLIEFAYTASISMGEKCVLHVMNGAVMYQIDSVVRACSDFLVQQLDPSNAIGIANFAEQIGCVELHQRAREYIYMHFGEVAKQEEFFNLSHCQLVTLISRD
# T1 sequence (Q13618 2-768, further chain): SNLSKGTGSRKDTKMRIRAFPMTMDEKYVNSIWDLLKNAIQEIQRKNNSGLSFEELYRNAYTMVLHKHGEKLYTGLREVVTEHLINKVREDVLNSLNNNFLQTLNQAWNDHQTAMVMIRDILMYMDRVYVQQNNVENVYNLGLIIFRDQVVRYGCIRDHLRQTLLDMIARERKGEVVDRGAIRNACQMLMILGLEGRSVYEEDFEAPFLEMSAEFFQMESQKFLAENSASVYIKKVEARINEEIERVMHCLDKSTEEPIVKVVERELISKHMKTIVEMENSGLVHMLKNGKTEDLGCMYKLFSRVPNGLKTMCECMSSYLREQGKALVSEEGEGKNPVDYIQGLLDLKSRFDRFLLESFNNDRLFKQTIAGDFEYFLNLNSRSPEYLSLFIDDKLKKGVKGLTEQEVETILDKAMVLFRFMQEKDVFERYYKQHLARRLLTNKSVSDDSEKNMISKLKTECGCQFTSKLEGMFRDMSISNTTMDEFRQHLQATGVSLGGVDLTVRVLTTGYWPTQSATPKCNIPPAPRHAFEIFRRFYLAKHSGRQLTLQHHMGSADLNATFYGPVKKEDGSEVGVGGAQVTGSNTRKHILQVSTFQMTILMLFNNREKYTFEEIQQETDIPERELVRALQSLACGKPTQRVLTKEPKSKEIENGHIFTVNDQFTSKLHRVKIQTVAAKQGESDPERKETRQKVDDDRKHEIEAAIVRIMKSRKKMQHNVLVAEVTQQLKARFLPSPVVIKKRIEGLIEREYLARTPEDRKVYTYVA
compound,measurement,value
"CC1(C)CC[C@]2(C(=O)O)CC[C@]3(C)[C@H](C(=O)C=C4[C@@]5(C)C=C(C#N)C(=O)C(C)(C)[C@@H]5CC[C@]43C)[C@@H]2C1 [CDDO, 2-cyano-3,12-dioxooleana-1,9-dien-28-oic-acid]",IC50,< 100 nM
